Test results published in ChEMBL document CHEMBL1136147, “Sub-nanomolar hMC1R agonists by end-capping of the melanocortin tetrapeptide His-D-Phe-Arg-Trp-NH(2)” (Bioorg Med Chem Lett, 2003).
One block for each compound: values may come before it.

Legend:
[1] = target: T1, Melanocortin receptor 3 (Homo sapiens, UniProt P41968); assay: Binding affinity towards human Melanocortin 3 receptor (hMC3R)
[2] = target: T1, Melanocortin receptor 3; assay: In vitro agonist potency was evaluated in HEK293 cells transfected with human melanocortin receptor (hMC3R); type: functional, cell-based
[3] = target: T2, Melanocyte-stimulating hormone receptor (Homo sapiens, UniProt Q01726); assay: In vitro agonist potency was evaluated in HEK293 cells transfected with human melanocortin receptor (hMC1R); type: functional, cell-based
[4] = target: T3, Melanocortin receptor 4 (Homo sapiens, UniProt P32245); assay: In vitro agonist potency was evaluated in HEK293 cells transfected with human melanocortin receptor (hMC4R); type: functional, cell-based
[5] = target: T2, Melanocyte-stimulating hormone receptor; assay: Binding affinity towards human Melanocortin 1 receptor (hMC1R)
[6] = target: T3, Melanocortin receptor 4; assay: Binding affinity towards human melanocortin 4 receptor (hMC4R)

T2 sequence (Q01726 whole entry): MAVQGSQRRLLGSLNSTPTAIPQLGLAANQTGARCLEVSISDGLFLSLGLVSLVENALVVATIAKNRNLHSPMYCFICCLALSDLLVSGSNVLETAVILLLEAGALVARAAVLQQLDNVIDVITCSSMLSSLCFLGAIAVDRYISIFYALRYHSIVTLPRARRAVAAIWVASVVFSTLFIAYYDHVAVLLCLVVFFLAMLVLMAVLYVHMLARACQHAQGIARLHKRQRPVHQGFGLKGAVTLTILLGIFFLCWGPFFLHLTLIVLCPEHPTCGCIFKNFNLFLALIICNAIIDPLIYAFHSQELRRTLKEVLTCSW
T3 sequence (P32245 whole entry): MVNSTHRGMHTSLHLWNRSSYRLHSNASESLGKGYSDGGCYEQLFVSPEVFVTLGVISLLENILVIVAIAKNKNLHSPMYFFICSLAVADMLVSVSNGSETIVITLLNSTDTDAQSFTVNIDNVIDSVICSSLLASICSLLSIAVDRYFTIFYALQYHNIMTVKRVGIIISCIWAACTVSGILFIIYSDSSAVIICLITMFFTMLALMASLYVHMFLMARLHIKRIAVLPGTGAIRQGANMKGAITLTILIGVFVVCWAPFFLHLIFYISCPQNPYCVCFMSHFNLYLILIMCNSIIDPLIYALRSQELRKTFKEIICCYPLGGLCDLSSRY
T1 sequence (P41968 whole entry): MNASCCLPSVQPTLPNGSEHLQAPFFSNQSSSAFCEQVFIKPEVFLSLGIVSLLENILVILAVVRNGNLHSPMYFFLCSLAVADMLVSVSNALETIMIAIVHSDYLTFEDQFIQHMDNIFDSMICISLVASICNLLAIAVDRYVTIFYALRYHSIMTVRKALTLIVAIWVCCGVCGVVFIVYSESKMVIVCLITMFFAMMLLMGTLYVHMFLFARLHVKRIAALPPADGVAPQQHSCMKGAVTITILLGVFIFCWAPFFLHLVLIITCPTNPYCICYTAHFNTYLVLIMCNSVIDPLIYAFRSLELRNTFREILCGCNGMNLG

Ki [1]: 580 nM
EC50 [2]: 93.3 nM
EC50 [3]: 4.5 nM
EC50 [4]: 38.5 nM
Ki [5]: 37.5 nM
Ki [6]: 150 nM
Structure (SMILES): CCCC(=O)N[C@@H](Cc1cnc[nH]1)C(=O)N[C@@H](Cc1ccccc1)C(=O)N[C@@H](CCCNC(=N)N)C(=O)N[C@@H](Cc1c[nH]c2ccccc12)C(N)=O

Ki [1]: 280 nM
EC50 [2]: 130 nM
EC50 [3]: 7 nM
EC50 [4]: 24 nM
Ki [5]: 40 nM
Ki [6]: 97.5 nM
Structure (SMILES): CC(C)C(=O)N[C@@H](Cc1cnc[nH]1)C(=O)N[C@@H](Cc1ccccc1)C(=O)N[C@@H](CCCNC(=N)N)C(=O)N[C@@H](Cc1c[nH]c2ccccc12)C(N)=O

Ki [1]: 380 nM
EC50 [2]: 570 nM
EC50 [3]: 9.5 nM
EC50 [4]: 42.5 nM
Ki [5]: 91.5 nM
Ki [6]: 350 nM
Structure (SMILES): COCC(=O)N[C@@H](Cc1cnc[nH]1)C(=O)N[C@@H](Cc1ccccc1)C(=O)N[C@@H](CCCNC(=N)N)C(=O)N[C@@H](Cc1c[nH]c2ccccc12)C(N)=O

Ki [1]: 630 nM
EC50 [2]: 300 nM
EC50 [3]: 7 nM
EC50 [4]: 53 nM
Ki [5]: 125 nM
Ki [6]: 440 nM
Structure (SMILES): N=C(N)NCCC[C@H](NC(=O)[C@H](Cc1ccccc1)NC(=O)[C@H](Cc1c[nH]cn1)NC(=O)CO)C(=O)N[C@@H](Cc1c[nH]c2ccccc12)C(N)=O

Ki [1]: 260 nM
EC50 [2]: 98.3 nM
EC50 [3]: 6.8 nM
EC50 [4]: 28 nM
Ki [5]: 30 nM
Ki [6]: 160 nM
Structure (SMILES): N=C(N)NCCC[C@H](NC(=O)[C@H](Cc1ccccc1)NC(=O)[C@H](Cc1c[nH]cn1)NC(=O)c1ccccc1)C(=O)N[C@@H](Cc1c[nH]c2ccccc12)C(N)=O

Ki [1]: 160 nM
EC50 [2]: 58 nM
EC50 [3]: 7 nM
EC50 [4]: 16.5 nM
Ki [5]: 62 nM
Ki [6]: 140 nM
Structure (SMILES): N=C(N)NCCC[C@H](NC(=O)[C@H](Cc1ccccc1)NC(=O)[C@H](Cc1cnc[nH]1)NC(=O)C(N)=O)C(=O)N[C@@H](Cc1c[nH]c2ccccc12)C(N)=O

Ki [1]: 210 nM
EC50 [2]: 71 nM
EC50 [3]: 3.5 nM
EC50 [4]: 20.5 nM
Ki [5]: 43 nM
Ki [6]: 87 nM
Structure (SMILES): N=C(N)NCCC[C@H](NC(=O)[C@H](Cc1ccccc1)NC(=O)[C@H](Cc1cnc[nH]1)NC(=O)C1CC1)C(=O)N[C@@H](Cc1c[nH]c2ccccc12)C(N)=O

Ki [1]: 170 nM
EC50 [2]: 45 nM
EC50 [3]: 2 nM
EC50 [4]: 26.5 nM
Ki [5]: 20.5 nM
Ki [6]: 120 nM
Structure (SMILES): CCCCC(=O)N[C@@H](Cc1cnc[nH]1)C(=O)N[C@@H](Cc1ccccc1)C(=O)N[C@@H](CCCNC(=N)N)C(=O)N[C@@H](Cc1c[nH]c2ccccc12)C(N)=O

Ki [1]: 65 nM
EC50 [2]: 17 nM
EC50 [3]: 0.5 nM
EC50 [4]: 20 nM
Ki [5]: 6 nM
Ki [6]: 49 nM
Structure (SMILES): N=C(N)NCCC[C@H](NC(=O)[C@H](Cc1ccccc1)NC(=O)[C@H](Cc1c[nH]cn1)NC(=O)CCc1ccccc1)C(=O)N[C@@H](Cc1c[nH]c2ccccc12)C(N)=O

Ki [1]: 540 nM
EC50 [2]: 120 nM
EC50 [3]: 6.5 nM
EC50 [4]: 22.5 nM
Ki [5]: 63.5 nM
Ki [6]: 170 nM
Structure (SMILES): N=C(N)NCCC[C@H](NC(=O)[C@H](Cc1ccccc1)NC(=O)[C@H](Cc1c[nH]cn1)NC(=O)CC(F)(F)F)C(=O)N[C@@H](Cc1c[nH]c2ccccc12)C(N)=O

Ki [1]: 440 nM
EC50 [2]: 640 nM
EC50 [3]: 13.7 nM
EC50 [4]: 21.3 nM
Ki [5]: 34 nM
Ki [6]: 100 nM
Structure (SMILES): N=C(N)NCCC[C@H](NC(=O)[C@H](Cc1ccccc1)NC(=O)[C@H](Cc1cnc[nH]1)NC(=O)CCCO)C(=O)N[C@@H](Cc1c[nH]c2ccccc12)C(N)=O

Ki [1]: 66.5 nM
EC50 [2]: 28 nM
EC50 [3]: 2 nM
EC50 [4]: 13 nM
Ki [5]: 17.5 nM
Ki [6]: 100 nM
Structure (SMILES): N=C(N)NCCC[C@H](NC(=O)[C@H](Cc1ccccc1)NC(=O)[C@H](Cc1c[nH]cn1)NC(=O)Cc1ccccc1)C(=O)N[C@@H](Cc1c[nH]c2ccccc12)C(N)=O

More lines, now with the values behind:

Structure (SMILES): N=C(N)NCCC[C@H](NC(=O)[C@H](Cc1ccccc1)NC(=O)[C@H](Cc1c[nH]cn1)NC(=O)C(O)Cc1ccccc1)C(=O)N[C@@H](Cc1c[nH]c2ccccc12)C(N)=O (some centres undefined)
Ki [1]: 140 nM
EC50 [2]: 40.5 nM
EC50 [3]: 8 nM
EC50 [4]: 6.3 nM
Ki [5]: 11.5 nM
Ki [6]: 15.5 nM

Structure (SMILES): CC(C)(C)C(=O)N[C@@H](Cc1cnc[nH]1)C(=O)N[C@@H](Cc1ccccc1)C(=O)N[C@@H](CCCNC(=N)N)C(=O)N[C@@H](Cc1c[nH]c2ccccc12)C(N)=O
Ki [1]: 130 nM
EC50 [2]: 13 nM
EC50 [3]: 5 nM
EC50 [4]: 14.5 nM
Ki [5]: 43 nM
Ki [6]: 160 nM

Structure (SMILES): CSCC(=O)N[C@@H](Cc1cnc[nH]1)C(=O)N[C@@H](Cc1ccccc1)C(=O)N[C@@H](CCCNC(=N)N)C(=O)N[C@@H](Cc1c[nH]c2ccccc12)C(N)=O
Ki [1]: 230 nM
EC50 [2]: 230 nM
EC50 [3]: 9 nM
EC50 [4]: 41 nM
Ki [5]: 57.5 nM
Ki [6]: 210 nM

Structure (SMILES): CCC(=O)N[C@@H](Cc1c[nH]cn1)C(=O)N[C@@H](Cc1ccccc1)C(=O)N[C@@H](CCCN=C(N)N)C(=O)N[C@@H](Cc1c[nH]c2ccccc12)C(N)=O
Ki [1]: 540 nM
EC50 [2]: 450 nM
EC50 [3]: 7.5 nM
EC50 [4]: 38.5 nM
Ki [5]: 47.5 nM
Ki [6]: 160 nM

Structure (SMILES): N=C(N)NCCC[C@H](NC(=O)[C@H](Cc1ccccc1)NC(=O)[C@H](Cc1c[nH]cn1)NC(=O)COc1ccc(Cl)cc1)C(=O)N[C@@H](Cc1c[nH]c2ccccc12)C(N)=O
Ki [1]: 110 nM
EC50 [2]: 6 nM
EC50 [3]: 2 nM
EC50 [4]: 11.5 nM
Ki [5]: 6 nM
Ki [6]: 68 nM

Structure (SMILES): NC(=O)[C@H](Cc1c[nH]c2ccccc12)NC(=O)[C@H](CCCN=C(N)N)NC(=O)[C@@H](Cc1ccccc1)NC(=O)[C@H](Cc1cnc[nH]1)NC(=O)CCCc1ccccc1
Ki [1]: 13.5 nM
EC50 [3]: 0.009 nM
Ki [5]: 0.006 nM

Structure (SMILES): CC(=O)N[C@@H](Cc1c[nH]cn1)C(=O)N[C@@H](Cc1ccccc1)C(=O)N[C@@H](CCCN=C(N)N)C(=O)N[C@@H](Cc1c[nH]c2ccccc12)C(N)=O
Ki [1]: 770 nM
EC50 [2]: 170 nM
EC50 [3]: 13 nM
Ki [5]: 37 nM

Structure (SMILES): CS(=O)(=O)N[C@@H](Cc1c[nH]cn1)C(=O)N[C@@H](Cc1ccccc1)C(=O)N[C@@H](CCCN=C(N)N)C(=O)N[C@@H](Cc1c[nH]c2ccccc12)C(N)=O
Ki [1]: 1900 nM
EC50 [2]: 840 nM
EC50 [3]: 88 nM
EC50 [4]: 21.5 nM
Ki [5]: 260 nM
Ki [6]: 170 nM

Structure (SMILES): N#CCC(=O)N[C@@H](Cc1c[nH]cn1)C(=O)N[C@@H](Cc1ccccc1)C(=O)N[C@@H](CCCNC(=N)N)C(=O)N[C@@H](Cc1c[nH]c2ccccc12)C(N)=O
Ki [1]: 350 nM
EC50 [2]: 160 nM
EC50 [3]: 8 nM
EC50 [4]: 18 nM
Ki [5]: 86.5 nM
Ki [6]: 110 nM

Structure (SMILES): N=C(N)NCCC[C@H](NC(=O)[C@H](Cc1ccccc1)NC(=O)[C@@H](N)Cc1cnc[nH]1)C(=O)N[C@@H](Cc1c[nH]c2ccccc12)C(N)=O
Ki [1]: 890 nM
EC50 [2]: 350 nM
EC50 [3]: 31.8 nM
EC50 [4]: 29.7 nM
Ki [5]: 51 nM
Ki [6]: 180 nM

Structure (SMILES): N=C(N)NCCC[C@H](NC(=O)[C@H](Cc1ccccc1)NC(=O)[C@H](Cc1cnc[nH]1)NS(=O)(=O)c1ccc(Cl)cc1)C(=O)N[C@@H](Cc1c[nH]c2ccccc12)C(N)=O
Ki [1]: 440 nM
EC50 [2]: 390 nM
EC50 [3]: 33.3 nM
EC50 [4]: 11 nM
Ki [5]: 170 nM
Ki [6]: 66.5 nM

Structure (SMILES): N=C(N)NCCC[C@H](NC(=O)[C@H](Cc1ccccc1)NC(=O)[C@H](Cc1cnc[nH]1)NC(=O)Cc1ccc(Cl)cc1)C(=O)N[C@@H](Cc1c[nH]c2ccccc12)C(N)=O
Ki [1]: 20 nM
EC50 [2]: 9.3 nM
EC50 [3]: 9.5 nM
EC50 [4]: 7.5 nM
Ki [5]: 3.5 nM
Ki [6]: 5 nM
